Results taken from patent US20240325544A1, “CATIONIC LIPID FOR COVALENT MODIFICATION OF PEPTIDES” (PharmalN Corporation, priority 2023, published 2024).
Bridge positions count the residues as written; N and C are the ends. Square brackets hold non-standard residues; d marks the D form. Peptide text beside a SMILES is read from it. * marks the point of attachment. Palmitoyl = CCCCCCCCCCCCCCCC(=O)*; Dap = NC[C@H](N)C(=O)O; AEEA = NCCOCCOCC(=O)O

Experiments:
[1] = system: E0771 breast cancer cells; experiment: Orthotopic E0771 breast cancer model, monotherapy or with anti-PD1 Ab (FIG. 9); assay type: in vivo, mice
Experimental: FIG. 9. […] Error bars represent standard error of the mean. Tumor growth kinetics of 6-week-old female C57BL/6J mice (n=7-8 per group) that were orthotopically inoculated with E0771 breast cancer cells (250,000 cells/mouse) in the mammary gland. Starting from Day 4 post-inoculation, anti-PD1 Ab (aPD1) was administered intraperitoneally at 5 mg/kg twice a week for 2 cycles; SEQ ID NO: 31 was administered subcutaneously at a bolus dose of 0.3 mg/kg once daily for 5 days (5 days on, 2 days off) for 3 cycles; or a combination of aPD1 (5 mg/kg IP twice a week; 2 cycles) and SEQ ID NO: 31 (0.3 mg/kg SC once a day for 5 days on and 2 days off; 3 cycles); SEQ ID NO: 31 dose days indicated by dotted line or gridlines. The control group, which received only buffer, was dosed in the same manner as SEQ ID NO: 31 to establish the baseline tumor growth kinetics. […] Statistical analysis was based on Dunnett's test performed by using GraphPad (n=8, 7, 8, and 7; Control, aPD1, SEQ ID NO: 31, Combo (aPD1 and SEQ ID NO: 31) * P<0.05, **** P<0.0001 vs Control group.
Animal care and treatment: Female C57BL/6J mice (6 weeks-old) were purchased from Kyudo (Saga, Japan) and maintained under a 12-hour light/12-hour dark cycle with free access to water and standard mouse diet (CRF diet; Oriental Yeast Co., Ltd, Tokyo Japan). […] Tumor sizes were measured using calipers.

MC38 colon cancer cells = experiment: Subcutaneous mouse model of colon cancer using MC38 cells (FIG. 12); assay type: in vivo, mice; conditions: monotherapy, 0.3 mg/kg SC, 5 days on, 2 days off, 3 cycles; Day 22
Experimental: FIGS. 12A-12B. […] Error bars represent standard error of the mean. FIG. 12A) A diagram of the dose schedule for administration of immune checkpoint inhibitor (anti-tigit Ab) and SEQ ID NO: 31. FIG. 12 B) Tumor growth kinetics of 6-week-old male C57BL/6J mice (n=8-9 per group) that were subcutaneously inoculated with MC38 colon cancer cells (1,000,000 cells/mouse) in right flank. Starting from Day 4 post-inoculation, anti-tigit Ab was administered intraperitoneally at 5 mg/kg twice a week for 2 cycles; SEQ ID NO: 31 was administered subcutaneously at a bolus dose of 0.3 mg/kg (0.1 μmol/kg) once daily for 5 days (5 days on, 2 days off) for 3 cycles; or a combination of anti-tigit Ab (5 mg/kg IP twice a week; 2 cycles) and SEQ ID NO: 31 (0.3 mg/kg SC once a day for 5 days on and 2 days off; 3 cycles). The control group, which received only buffer, was dosed in the same manner as SEQ ID NO: 31 to establish the baseline tumor growth kinetics. […]
Animal care and treatment: Male C57BL/6J mice (6 weeks-old) were purchased from Kyudo (Saga, Japan) and maintained under a 12-hour light/12-hour dark cycle with free access to water and standard mouse diet (MF diet; Oriental Yeast Co., Ltd, Tokyo Japan). […] Tumor sizes were measured using calipers on Days 4, 7, 14, and Day 22 post-inoculation. […]

**Q.** With CCCCCCCCCCCCCCCC(=O)NCCOCCOCC(=O)NCCOCCOCC(=O)NCCOCCOCC(=O)N[C@@H](CN)C(=O)N[C@@H](CN)C(=O)NCC(=O)N[C@@H](CC(C)C)C(=O)N[C@@H](CO)C(=O)N[C@@H](CCCCN)C(=O)NCC(=O)N[C@H]1CSSC[C@@H](C(=O)O)NC(=O)CNC(=O)[C@H](CC(C)C)NC(=O)CNC(=O)[C@H](CO)NC(=O)[C@H](CCC(N)=O)NC(=O)[C@H](CO)NC(=O)CNC(=O)[C@H]([C@@H](C)CC)NC(=O)[C@H](CCCNC(=N)N)NC(=O)[C@H](CC(=O)O)NC(=O)[C@H](CC(C)C)NC(=O)[C@H](CCCCN)NC(=O)[C@H](CC(C)C)NC(=O)CNC(=O)[C@H](Cc2ccccc2)NC1=O [SEQ ID NO: 31] ({Palmitoyl-AEEA-AEEA-AEEA}-[Dap][Dap]GLSKGCFGLKLDRIGSQSGLGC-OH; disulfide 8-24; C-terminus assumed) as the compound, how does the “Tumor volume compared to Control group and aPD1 group” value ([1]; combination with aPD1 5 mg/kg IP twice a week, 2 cycles) read?
**A.** Its value is “significant decrease in tumor volume”.

**Q.** What about the “Tumor volume compared to Control group and aPD1 group” value ([1]; monotherapy, 0.3 mg/kg SC, 5 days on, 2 days off, 3 cycles) of the same compound?
**A.** The value was “significant decrease in tumor volume”.

**Q.** And the “Tumor volume and cancer burden compared to the Control group” value (MC38 colon cancer cells)?
**A.** Its value is “significant decrease in tumor volume and cancer burden”.
